Test results as given in patent EP0580252A2, “Improvements in or relating to pectin methyl esterase” (QUEST INTERNATIONAL B.V., priority 1992, dated 1994).

Key:
[1] = test system: WGL (wheat germ lipase) derived PME (pectin methyl esterase); test: Inhibition test with tyrosine selective inhibitor N-acetyl-imidazole; format: biochemical; settings: NAI 1.4mg.100 ml; 1% pectin; enzyme 0.005-0.088%
Protocol: (§1) Bacterial and plant derived PMEs were tested for inhibition by N-acetyl-imidazole (NAI), a tyrosine selective inhibitor.
(§2) Inhibition by N-acetyl-imidazole was carried out in three different ways: by addition of the NAI to enzyme solution, to pectin solution, and to mixed enzyme and substrate. Typically we used 1% pectin (5% for papain also), enzyme concentrations of 0.005-0.088% and NAI concentrations of 1.4mg.100 ml.

orange PME = test: as above; format: biochemical; settings: NAI 1.4mg.100 ml; 1% pectin; enzyme 0.005-0.088%
Protocol: as §1, §2

tomato PME = test: as above; format: biochemical; settings: NAI 1.4mg.100 ml; 1% pectin; enzyme 0.005-0.088%
Protocol: as §1, §2

bacterial PMEs = test: as above; format: biochemical; settings: NAI 1.4mg.100 ml; 1% pectin; enzyme 0.005-0.088%
Protocol: as §1, §2

[2] = test system: papain derived PME (pectin methyl esterase); test: as above; format: biochemical, papaya; settings: NAI 1.4mg.100 ml; 1% pectin (5% for papain also); enzyme 0.005-0.088%
Protocol: as §1, §2

[3] = test system: bromelain derived PME (pectin methyl esterase); test: as above; format: biochemical, bromelard; settings: NAI 1.4mg.100 ml; 1% pectin; enzyme 0.005-0.088%
Protocol: as §1, §2

[4] = test system: ficin derived PME (pectin methyl esterase); test: as above; format: biochemical, fig; settings: NAI 1.4mg.100 ml; 1% pectin; enzyme 0.005-0.088%
Protocol: as §1, §2

papain PME = test: Effect of methanol (reaction product) on PME activity; format: biochemical, papaya; settings: methanol concentration not stated
[5] = test system: PMEs (papain PME, ficin PME and other known plant PMEs); test: Inhibition of PME activity by galacturonic acid; format: biochemical; settings: up to concentrations of 25 gl⁻¹

CC(=O)n1ccnc1 [NAI, N-acetyl-imidazole]
inhibition by NAI [1]: not to be inhibited
inhibition by NAI (orange PME): inhibited
inhibition by NAI (tomato PME): inhibited
inhibition by NAI (bacterial PMEs): inhibited
inhibition by NAI [2]: not to be inhibited
inhibition by NAI [3]: not to be inhibited
inhibition by NAI [4]: not to be inhibited

CO [methanol]
inhibition by methanol (papain PME; 1% pectin): inhibited
inhibition by methanol (papain PME; 5% pectin): hardly noticed
inhibition by methanol (papain PME): under certain conditions is inhibited and YES

galacturonic acid
inhibition by galacturonic acid [5]: None of the PMEs is inhibited
